Test results taken from US7879542B2, “Methylated gene biomarkers for detecting cancer” (The Johns Hopkins University, priority 2003, dated 2011).

What was measured:
SPARC mRNA expression = assay: 5Aza-dC / TSA treatment of pancreatic cancer cell lines harboring SPARC methylation, SPARC mRNA by RT-PCR; type: cell-based, human
Experimental: (§1) Four μg of total RNA was reverse-transcribed using Superscript II (Invitrogen). The SPARC RT-PCR reaction was performed under the condition as follow: 95° C. for 5 minutes; then 28 cycles of 95° C. for 20 seconds, 63° C. for 20 seconds, and 72° C. for 20 seconds; and a final extension of 4 minutes at 72° C. Primer sequences were 5′-AAGATCCATGAGAATGAGAAG-3′ (forward) (SEQ ID NO: 11) and 5′-AAA AGC GGG TGG TGC AAT G-3′ (reverse) (SEQ ID NO: 12). To check the integrity of mRNA, glyceraldehyde-3-phosphate dehydrogenase (GAPDH) was also amplified in the same PCR condition. For semiquantitative analysis, the RT-PCR was performed with primers for SPARC and GAPDH in duplex reactions, and range of linear amplification for both genes was examined with serial PCR cycles to determine the optimal cycle. The relative intensity of SPARC mRNA expression was then corrected for variable RNA recovery using the corresponding GAPDH mRNA measurement as a surrogate for total mRNA.
Eight pancreatic cancer cell lines (AsPC1, BxPC3, Capan2, CFPAC1, Hs766T, MiaPaCa2, PL3, and PL12) were treated with 5Aza-dC. Cells in log phase growth were seeded in T-75 culture flasks. After overnight incubation, the cells were exposed continuously to 5Aza-dC (1 μM) for 4 days, with a change of drug and culture medium every 24 hours.
To confirm that DNA methylation is a mechanism for the silencing of SPARC, we treated 8 pancreatic cancer cell lines harboring SPARC methylation with the demethylating agent 5Aza-dC.

[1] = tested on: SPARC gene expression in pancreatic cancer cells; conditions: pancreatic cancer cells treated with 5Aza-dC; Sato et al., manuscript submitted; cited from earlier work
[2] = tested on: SPARC mRNA expression in fibroblasts (panc-f3); assay: Effect of TGF-β on SPARC expression in fibroblasts (semiquantitative RT-PCR); type: cell-based, human; conditions: TGF-β 5 ng/ml, 24 hours
Experimental: as §1
(§2) Because several growth factors such as TGF-β are known to induce the SPARC expression in fibroblasts (Wrana et al., 1991; Reed et al., 1994), and because TGF-β is one of the major secreted proteins highly expressed by pancreatic cancer cells (Friess et al., 1993), we examined the effect of TGF-β on SPARC expression in fibroblasts (panc-f3). […]

[3] = tested on: SPARC mRNA expression in AsPC1; assay: Effect of TGF-β on SPARC mRNA expression in pancreatic cancer cell lines; type: cell-based, human; conditions: TGF-β 5 ng/ml, data not shown
Experimental: as §1, §2

[4] = tested on: SPARC mRNA expression in Panc1; assay: as above; type: cell-based, human; conditions: TGF-β 5 ng/ml, data not shown
Experimental: as §1, §2

Panc1 cells = assay: Effect of exogenous SPARC on proliferation of pancreatic cancer cells (cell count by hemacytometer); type: cell-based, human; conditions: SPARC 10 μg/ml, 72 hours
Experimental: (§3) We treated two pancreatic cancer cell lines (AsPC1 and Panc1) with exogenous SPARC. Cells in log phase growth were seeded at a density of 1×10^4 cells/well in 24-well plates. After overnight incubation, cells were treated with or without human platelet SPARC protein (10 μg/ml) for 72 hours, and the number of cells were counted by hemacytometer in three independent wells.
(§4) The effect of exogenous SPARC protein on growth of pancreatic cancer cells in vitro was also examined. We treated two pancreatic cancer cell lines (AsPC1 and Panc1) with purified SPARC protein and counted the number of cells after 72 hours.

AsPC1 cells = assay: as above; type: cell-based, human; conditions: SPARC 10 μg/ml, 72 hours
Experimental: as §3, §4

In the case of `Nc1ncn([C@H]2C[C@H](O)[C@@H](CO)O2)c(=O)n1` [5Aza-dC, 5-Aza-2′-deoxycytidine], the “SPARC mRNA expression after treatment (RT-PCR)” value (“SPARC mRNA expression … (RT-PCR)” for short) (SPARC mRNA expression; 8 pancreatic cancer cell lines harboring SPARC methylation, 5Aza-dC 1 μM, 4 days) is given as “restored in 7 of the 8 cell lines”, the “SPARC mRNA expression … (RT-PCR)” value (SPARC mRNA expression; Hs766T cell line) is given as “did not restore the SPARC expression” and the “induction of SPARC gene expression (oligonucleotide microarrays)” value [1] is given as ≥ 5 fold.

For `CC(/C=C/C(=O)NO)=C\[C@@H](C)C(=O)c1ccc(N(C)C)cc1` [trichostatin A (TSA), trichostatin A], the “SPARC mRNA expression … (RT-PCR)” value (SPARC mRNA expression; Hs766T cell line) was “did not induce the SPARC expression”.

For “TGF-β: human recombinant transforming growth factor (TGF)-β1 purchased from Sigma”, the “increase in SPARC mRNA expression” value [2] was ~3,3 fold, the “SPARC transcript after treatment” value [3] was “remained undetectable” and the “increase in SPARC mRNA expression” value [4] was ~1,5 fold.

B1: SPARC: Purified human platelet SPARC protein purchased from Calbiochem (protein, UniProt P09486 18-303, looked up)
SPARC: APQQEALPDETEVVEETVAEVTEVSVGANPVQVEVGEFDDGAEETEEEVVAENPCQNHHCKHGKVCELDENNTPMCVCQDPTSCPAPIGEFEKVCSNDNKTFDSSCHFFATKCTLEGTKKGHKLHLDYIGPCKYIPPCLDSELTEFPLRMRDWLKNVLVTLYERDEDNNLLTEKQKLRVKKIHENEKRLEAGDHPVELLARDFEKNYNMYIFPVHWQFGQLDQHPIDGYLSHTELAPLRAPLIPMEHCTTRFFETCDLDNDKYIALDEWAGCFGIKQKDIDKDLVI
For B1, the growth inhibition (Panc1 cells; P<0.0001) was ~30%, the cell number (Panc1 cells; mean±SD, untreated 5.0±0.4) was 3.5±0.4 ×10^4 cells and the growth suppression (AsPC1 cells; P=0.001) was ~27%. For the same molecule, the cell number (AsPC1 cells; mean±SD, untreated 5.8±0.8) was 4.2±0.3 ×10^4 cells.
